Assay results reported in patent US20020128256A1, “Methods for the treatment or prevention of inflammatory diseases characterized by abnormal cell proliferation” (priority 1997, published 2002).
Like-named read-outs stand apart in the source and are kept apart here.

Key:
[1] = system: NIH 3T3 mouse fibroblast cells; experiment: Mitogenic Assay (mitogen-induced cell proliferation); type: cell-based
[2] = target: T1, Gardos channel of erythrocytes (Homo sapiens, UniProt O15554); experiment: Gardos Channel Assay; type: cell-based; settings: for inhibition at 10 µM: read-out: Gardos Channel Assay Inhibition (%)
T1 construct: endogenous in cells; host or cells: erythrocytes

HeLa = experiment: SRB antiproliferative assay, HeLa; type: cell-based; settings: Homo sapiens, HeLa, 120 h, read-out: SRB assay IC50
Method: (§1) The antiproliferative assays described herein were performed using standard aseptic procedures and universal precautions for the use of tissues. Cells were propagated using RPMI 1640 media (Gibco) containing 2% N 5% fetal calf serum (Biowhittaker) at 37° C., 5% CO2 and 95% humidity. The cells were passaged using Trypsin (Gibco). Prior to addition of test compound, the cells were harvested, the cell number counted and seeded at 10,000 cells/well in 100 μl 5% fetal calf serum (FCS) containing RPMI medium in 96-well plates and incubated overnight at 37° C., 5% CO2 and 95% humidity.
(§2) Following incubation, the cellular protein was determined with the ulforhodamine B (SRB) assay (Skehan P et al., 1990, J. Natl. Cancer Inst. 82:1107-1112).

CaSki = experiment: SRB antiproliferative assay, CaSki; type: cell-based; settings: Homo sapiens, Ca-Ski, 120 h, read-out: SRB assay IC50
Method: as §1, §2

MDA-MB-231 = experiment: SRB antiproliferative assay, MDA-MB-231; type: cell-based; settings: Homo sapiens, 120 h, read-out: SRB assay IC50
MCF7 = experiment: SRB antiproliferative assay, MCF7; type: cell-based; settings: Homo sapiens
Method: as §1, §2

A549 = experiment: SRB antiproliferative assay, A549; type: cell-based; settings: Homo sapiens
Method: as §1, §2

HTB174 = experiment: SRB antiproliferative assay, HTB174; type: cell-based; settings: 120 h, read-out: SRB assay IC50
Method: as §1, §2

HEPG2 = experiment: SRB antiproliferative assay, HEPG2; type: cell-based; settings: Homo sapiens
Method: as §1, §2

DU-145 = experiment: SRB antiproliferative assay, DU-145; type: cell-based; settings: Homo sapiens, DU-145, 120 h, read-out: SRB assay IC50
Method: as §1, §2

SK-MEL-28 = experiment: SRB antiproliferative assay, SK-MEL-28; type: cell-based; settings: Homo sapiens, SK-MEL-28, 120 h, read-out: SRB assay IC50
Method: as §1, §2

MMRU = experiment: SRB antiproliferative assay, MMRU; type: cell-based, human; settings: Homo sapiens
Method: Cells were propagated using RPMI 1640 media (Gibco) containing 2% N 5% fetal calf serum (Biowhittaker) at 37° C., 5% CO2 and 95% humidity. The cells were passaged using Trypsin (Gibco). Prior to addition of test compound, the cells were harvested, the cell number counted and seeded at 10,000 cells/well in 100 μl 5% fetal calf serum (FCS) containing RPMI medium in 96-well plates and incubated overnight at 37° C., 5% CO2 and 95% humidity.
as §2

HT29 = experiment: SRB antiproliferative assay, HT29; type: cell-based; settings: Homo sapiens
Method: as §1, §2

HCT-15 = experiment: SRB antiproliferative assay, HCT-15; type: cell-based; settings: Homo sapiens, HCT-15, 120 h, read-out: SRB assay IC50
Method: as §1, §2

ACHN = experiment: SRB antiproliferative assay, ACHN; type: cell-based; settings: Homo sapiens, ACHN, 120 h, read-out: SRB assay IC50
Method: as §1, §2

U118MG = experiment: SRB antiproliferative assay, U118MG; type: cell-based; settings: Homo sapiens, U-118-MG
Method: as §1, §2

HUVEC = experiment: SRB assay, normal cells HUVEC; type: cell-based, human; settings: Homo sapiens, HUVEC, 120 h, read-out: SRB assay IC50
Method: as §1, §2

GM = experiment: SRB assay, normal cells GM; type: cell-based, human; settings: Homo sapiens, 120 h, read-out: SRB assay IC50
Method: as §1, §2

3T3 = experiment: SRB assay, normal cells 3T3; type: cell-based, mouse; settings: Mus musculus, NIH3T3, 120 h, read-out: SRB assay IC50
Method: as §1, §2

L929 = experiment: SRB assay, normal cells L929; type: cell-based, mouse; settings: Mus musculus, L929, 120 h, read-out: SRB assay IC50
Method: as §1, §2

Gardos channel = Gardos channel (Homo sapiens, UniProt O15554); design: host or cells: sickle erythrocytes (printed for Clotrimazole only); settings: cited from earlier work
[3] = measured at 10 μM compound, NIH 3T3 cells
[4] = Mus musculus, NIH3T3, measured at 10 μM compound, NIH 3T3 cells, read-out: Mitogenic Assay Inhibition (%)
[5] = NIH3T3, NIH 3T3 mouse fibroblast cells, mitogen-induced proliferation, read-out: Mitogenic Assay IC50
[6] = erythrocytes, read-out: Gardos Channel Assay IC50
[7] = NIH 3T3 mouse fibroblast cells, mitogen-induced proliferation, read-out: Mitogenic Assay IC50
[8] = MCF7, 120 h, read-out: SRB assay IC50
[9] = A549, 120 h, read-out: SRB assay IC50
[10] = HepG2, 120 h, read-out: SRB assay IC50
[11] = 120 h, read-out: SRB assay IC50
[12] = HT-29, 120 h, read-out: SRB assay IC50

T1 sequence (O15554 whole entry): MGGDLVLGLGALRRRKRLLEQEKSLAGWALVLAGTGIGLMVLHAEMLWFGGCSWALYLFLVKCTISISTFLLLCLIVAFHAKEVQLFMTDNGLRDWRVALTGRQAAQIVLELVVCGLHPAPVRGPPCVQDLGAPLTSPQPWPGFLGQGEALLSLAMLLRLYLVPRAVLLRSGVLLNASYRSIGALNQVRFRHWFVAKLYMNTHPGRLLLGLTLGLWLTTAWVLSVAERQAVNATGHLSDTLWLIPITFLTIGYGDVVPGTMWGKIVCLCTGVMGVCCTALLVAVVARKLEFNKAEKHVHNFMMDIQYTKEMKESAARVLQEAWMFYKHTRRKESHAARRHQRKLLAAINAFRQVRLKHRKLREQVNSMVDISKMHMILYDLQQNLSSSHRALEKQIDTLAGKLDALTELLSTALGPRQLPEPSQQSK
Sequence of Gardos channel (O15554 whole entry): as above

2-(Ethyl-2′-(1,3-dioxolane))-1-hydroxy-3,3-diphenylindene [Compound 20]
Mitogenic Assay Inhibition (%) [1, 3]: 81.0% | Gardos Channel Assay Inhibition (%) ([2]; measured at 10 μM compound): 0%

3,3-Diphenyl-1-indanyl α-(4-methyltoluate) ether [Compound 17]
Mitogenic Assay Inhibition (%) [1, 3]: 76.0% | Gardos Channel Assay Inhibition (%) ([2]; measured at 10 μM compound): 0%

NC1=Nc2ccccc2C1(c1ccccc1)c1ccccc1 [Compound 1]
inhibition at 10 µM [1, 4]: 97% | IC50 [1, 5]: 700 nM | IC50 [2, 6]: 419 nM | inhibition at 10 µM ([2]; measured at 10 μM compound): 98%

O=C1CC(c2ccccc2)(c2ccccc2)c2ccccc21 [Compound 2, 3,3-Diphenylindanone]
IC50 [2, 6]: 1010 nM | inhibition at 10 µM ([2]; measured at 10 μM compound): 100%

OC1CC(c2ccccc2)(c2ccccc2)c2ccccc21 (stereo not drawn) [Compound 3, 1-Hydroxy-3,3-Diphenylindane]
IC50 [2, 6]: 819 nM | inhibition at 10 µM [2]: 100% | melting point: 133 to 135 °C

O/N=C1\CC(c2ccccc2)(c2ccccc2)c2ccccc21 [Compound 4, 1-N-Oxime-3,3-Diphenylindane]
IC50 [2, 6]: 1350 nM | inhibition at 10 µM ([2]; measured at 10 μM compound): 100% | melting point: 138 to 141 °C

N#CC1OC12CC(c1ccccc1)(c1ccccc1)c1ccccc12 (stereo not drawn) [Compound 5, Spiro[3,3-diphenyl-2,3-dihydro(1H)indene-1,3′-2′-cyanooxirane]]
Mitogenic Assay Inhibition (%) [1, 3]: 29.0% | Gardos Channel Assay Inhibition (%) ([2]; measured at 10 μM compound): 67.3%

C=CCOC1c2ccccc2C(c2ccccc2)(c2ccccc2)C1CC=C (stereo not drawn) [Compound 6, 2-(2′-Propenyl)-1-(2′-propenoxy)-3,3-diphenylindane]
IC50 [1, 7]: 3400 nM | Mitogenic Assay Inhibition (%) [1, 3]: 90.0% | Gardos Channel Assay Inhibition (%) ([2]; measured at 10 μM compound): 35.0%

CC(=O)OC1CC(c2ccccc2)(c2ccccc2)c2ccccc21 (stereo not drawn) [Compound 7, 1-Acetoxy-3,3-diphenylindane]
IC50 [2]: 1150 nM | inhibition at 10 µM ([2]; measured at 10 μM compound): 88% | melting point: 90 °C

O=C1CC(c2ccc(Cl)cc2)(c2ccc(Cl)cc2)c2ccc(Cl)cc21 [Compound 8, 6-Chloro-3,3-di(4-chlorophenyl)indanone]
IC50 ([1]; Mus musculus, NIH3T3, read-out: Mitogenic Assay IC50): 2000 nM | inhibition at 10 µM ([1]; Mus musculus, NIH3T3, read-out: Mitogenic Assay Inhibition (%)): 97% | IC50 (HeLa): > 10000 nM | IC50 (CaSki): 6800 nM | IC50 (MDA-MB-231): > 10000 nM | IC50 (MCF7; [8]): 5500 nM | IC50 (MCF7; MCF7, read-out: SRB IC50): > 10000 nM | IC50 (A549; [9]): 8900 nM | IC50 (A549; A549, read-out: SRB IC50): > 10000 nM | IC50 (HTB174): > 10000 nM | IC50 (HEPG2; [10]): 6400 nM | IC50 (HEPG2; HepG2, read-out: SRB IC50): 7800 nM | IC50 (DU-145): > 10000 nM | IC50 (SK-MEL-28): > 10000 nM | IC50 (MMRU; [11]): > 10000 nM | IC50 (MMRU; read-out: SRB IC50): 3300 nM | IC50 (HT29; [12]): 8300 nM | IC50 (HT29; HT-29, read-out: SRB IC50): > 10000 nM | IC50 (HCT-15): > 10000 nM | IC50 (ACHN): > 10000 nM | IC50 (U118MG; [11]): > 10000 nM | IC50 (U118MG; read-out: SRB IC50): > 10000 nM | IC50 (HUVEC): > 10000 nM | IC50 (GM): > 10000 nM | IC50 (3T3): > 10000 nM | IC50 (L929): > 10000 nM | melting point: 134 °C

N#CCC1C(=O)c2ccccc2C1(c1ccccc1)c1ccccc1 (stereo not drawn) [Compound 9, 2-cyanomethyl-3,3-diphenylindanone]
IC50 [2, 6]: 505 nM | inhibition at 10 µM [2]: 100%

N#CCC1C(=O)c2cc(Cl)ccc2C1(c1ccc(Cl)cc1)c1ccc(Cl)cc1 (stereo not drawn) [Compound 10, 6-Chloro-2-cyanomethyl-3,3-di(4′-chlorophenyl)indanone]
inhibition at 10 µM [1, 4]: 98% | IC50 [1, 5]: 3300 nM | inhibition at 10 µM ([2]; measured at 10 μM compound): 49.5%

NC(=O)CC1C(=O)c2ccccc2C1(c1ccccc1)c1ccccc1 (stereo not drawn) [Compound 12, 2-Acetamide-3,3-diphenylindanone]
IC50 [2, 6]: 189 nM | inhibition at 10 µM ([2]; measured at 10 μM compound): 99.5% | melting point: 169 to 171 °C

N#CCC1C(O)c2ccccc2C1(c1ccccc1)c1ccccc1 (stereo not drawn) [Compound 13, 2-Cyanomethyl-3,3-diphenylindanol]
inhibition at 10 µM [1, 4]: 12% | IC50 [2, 6]: 1590 nM | inhibition at 10 µM ([2]; measured at 10 μM compound): 99.5% | melting point: 79 to 85 °C

NC(=O)CC1C(O)c2ccccc2C1(c1ccccc1)c1ccccc1 (stereo not drawn) [Compound 14, 2-Acetamide-3,3-diphenylindanol]
inhibition at 10 µM [1, 4]: 3% | IC50 [2, 6]: 2960 nM | inhibition at 10 µM ([2]; measured at 10 μM compound): 90.5% | melting point: 218 to 220 °C

COC(=O)CC1C(=O)c2ccccc2C1(c1ccccc1)c1ccccc1 (stereo not drawn) [Compound 15, 3,3-Diphenylindanone-2-methyl acetate]
IC50 [1, 7]: 7500 nM | Mitogenic Assay Inhibition (%) [1, 3]: 80.0% | IC50 [2, 6]: 2900 nM | Gardos Channel Assay Inhibition (%) ([2]; measured at 10 μM compound): 54.8%

c1ccc(C2(c3ccccc3)CC(OCc3ccc4ccccc4c3)c3ccccc32)cc1 (stereo not drawn) [Compound 16, 3,3-Diphenyl-1-indanyl 2-naphthylmethyl ether]
inhibition at 10 µM [1, 4]: 75% | inhibition at 10 µM ([2]; measured at 10 μM compound): 0%

Clc1ccccc1COC1CC(c2ccccc2)(c2ccccc2)c2ccccc21 (stereo not drawn) [Compound 18, 3,3-Diphenyl-1-indanyl α-(2-chlorotoluyl) ether]
Mitogenic Assay Inhibition (%) [1, 3]: 73.0% | Gardos Channel Assay Inhibition (%) ([2]; measured at 10 μM compound): 0%

O=C1c2ccccc2C(c2ccccc2)(c2ccccc2)C1CCCO (stereo not drawn) [Compound 19, 3-(3′,3′-diphenyl-2′-indanyl-1′-one)propanol]
IC50 [2]: 5950 nM | inhibition at 10 µM [2]: 43.7% | melting point: 98 °C

COc1cc([C@@H]2c3cc4c(cc3[C@@H](O[C@@H]3O[C@@H]5CO[C@@H](C)O[C@H]5[C@H](O)[C@H]3O)[C@H]3COC(=O)[C@H]23)OCO4)cc(OC)c1O [VP-16, Etoposide (VP-16), reference compound]
IC50 (HeLa): < 1250 nM | IC50 (CaSki): 1800 nM | IC50 (MDA-MB-231): < 1250 nM | IC50 (MCF7; [8]): < 1250 nM | IC50 (MCF7; MCF7, read-out: SRB IC50): < 2500 nM | IC50 (A549; [9]): < 1250 nM | IC50 (A549; A549, read-out: SRB IC50): 2300 nM | IC50 (HTB174): < 1250 nM | IC50 (HEPG2; [10]): < 1250 nM | IC50 (DU-145): < 1250 nM | IC50 (SK-MEL-28): < 1250 nM | IC50 (MMRU; [11]): < 1250 nM | IC50 (MMRU; read-out: SRB IC50): < 2500 nM | IC50 (HT29; [12]): < 1250 nM | IC50 (HT29; HT-29, read-out: SRB IC50): 20000 nM | IC50 (HCT-15): 1300 nM | IC50 (ACHN): < 1250 nM | IC50 (U118MG; [11]): 2200 nM | IC50 (HUVEC): < 1250 nM | IC50 (GM): 1400 nM | IC50 (L929): < 1250 nM

Clc1ccc(CCC(Cn2ccnc2)Sc2c(Cl)cccc2Cl)cc1 (stereo not drawn) [butoconazole]
Gardos channel inhibition in vitro (Gardos channel): inhibit the Gardos channel in vitro

Clc1ccc(COC(Cn2ccnc2)c2ccc(Cl)cc2Cl)cc1 (stereo not drawn) [econazole]
Gardos channel inhibition in vitro (Gardos channel): inhibit the Gardos channel in vitro

Clc1ccc(COC(Cn2ccnc2)c2ccc(Cl)cc2Cl)c(Cl)c1 (stereo not drawn) [miconazole]
Gardos channel inhibition in vitro (Gardos channel): inhibit the Gardos channel in vitro
